The source of these data is patent publication US4521417A, “Geranylgeranylacetamide compounds having a piperazine ring, salts thereof, pharmaceutical compositions containing said compounds, and method of treating ulcers in mammals” (Nihon Iyakuhin Kogyo Co., Ltd., priority 1982, dated 1985).

The test system of assay [1] is ulcers generated in the stomach body. The experiment in a line: Pharmacological Test 2: water-immersion stress ulcer in rats, drug oral, total ulcer length. Type of assay: in vivo, STD Wistar-strain male rats. The settings on record: Rattus norvegicus, 1 hour before water immersion stress at 23±1° C., 18 hours, n=10 rats, read-out: Percent inhibition (total length of ulcers). As to the method: (§1) Pharmacological tests were conducted on the above-mentioned known anti-ulcerogenic agents, the typical known anti-ulcerogenic compound of formula (A)-1 given hereinabove, and the compounds of formula (I) in accordance with this invention in order to examine their anti-ulcerogenic activities.
(§2) In these pharmacological tests, the numbers attached to the compounds of this invention correspond to the numbers of Production Examples given hereinbelow.
STD Wistar-strain male rats (body weight 170 to 200 g) were caused to fast for 30 hours, and put in a wire cage. They were immersed in a constant temperature water tank kept at 23±1° C. to their emsistermun. Eighteen hours later, the animals were taken out, and incised at the abdomen. The stomach was cut open and examined microscopically. One hour before applying stress to the animals by water immersion, each of the test drugs was orally administered. The total length of ulcers generated in the stomach body was compared with that in a control, and the rate of inhibiting ulcer formation was calculated.

The test system of assay [2] is ulcer. The experiment in a line: Pharmacological Test 1: pylorus-ligation ulcer in fasted rats, drug intraduodenal, ulcer area after 8 h. The format is in vivo, STD Wistar-strain male rats. The settings on record: Rattus norvegicus, pylorus ligated, n=15 rats, read-out: Percent inhibition (ulcer area). The protocol: as §1, §2
STD Wistar-strain male rats (body weight 170 to 200 g) were caused to fast for 72 hours, and then under ether anesthesia, were incised at the abdomen. The pylorus portion was ligated, and each of the test drugs was intraduodenally administered. The abdomen was closed and sewn. Eight hours later, the abdomen was cut open, and the stomach was taken out. The area of a generated ulcer was measured by a stereoscopic microscope, and the percent inhibition was calculated by comparison from a control to which the drug was not administered.

Assay [3] concerns ulcers. In words: Pharmacological Test 3: indomethacine-induced ulcer in rats, drug oral, total ulcer length. Type of assay: in vivo, STD Wistar male rats. The settings on record: Rattus norvegicus, 10 minutes before indomethacine 40 mg/kg s.c., 7 hours, n=10 rats, read-out: Percent inhibition (total length of ulcers). The protocol:
Pharmacological tests were conducted on the above-mentioned known anti-ulcerogenic agents, the typical known anti-ulcerogenic compound of formula (A)-1 given hereinabove, and the compounds of formula (I) in accordance with this invention in order to examine their anti-ulcerogenic activities. In these pharmacological tests, the numbers attached to the compounds of this invention correspond to the numbers of Production Examples given hereinbelow. STD Wistar male rats (body weight 170 to 200 g) were caused to fast for 24 hours, and indomethacine dissolved in a 5% aqueous solution of sodium hydrogen carbonate was subcutaneously administered in a dose of 40 mg/kg. Seven hours later, the animals were autopsied. Each of the test drugs was administered orally to the stomach 10 minutes before administration of indomethacine. The total length of ulcers formed was compared with that in a control, and the percent inhibition was calculated.

Counter-ions that a name gives are not always drawn.

Take `CC(C)=CCC/C(C)=C/CC/C(C)=C/CC/C(C)=C/CCC(=O)N1C(C)CNCC1C` (stereo not drawn) [Compound (15), 2,6-dimethyl-N-geranylgeranylacetyl piperazine]: the inhibition in vivo at 300 mg/kg in assay [1] and in assay [2] was 80% throughout. The inhibition in vivo at 200 mg/kg in assay [3] is 77.2%.

`CCN1CCN(C(=O)CC/C=C(\C)CC/C=C(\C)CC/C=C(\C)CCC=C(C)C)CC1` [Compound (3), N-ethyl-N'-geranylgeranylacetyl piperazine]: the inhibition in vivo at 300 mg/kg in assay [1] is 68.7%; in assay [2] it was 70.1%. In addition, in assay [3], the inhibition in vivo at 200 mg/kg was 62.1%.

In the case of `CC(C)=CCCC(C)=CCCC(C)=CCCC(=O)OC/C=C(\C)CCC=C(C)C` [Gefarnate, geranyl farnesylacetate, reference compound], the inhibition in vivo at 300 mg/kg is 23.6% in assay [1], 30% in assay [2] and 33.1% in assay [3].

Consider `CC(C)=CCC/C(C)=C/CC/C(C)=C/CC/C(C)=C/CCC(=O)N1CCN(CCCBr)CC1` [Compound (11), N-3-bromopropyl-N'-geranylgeranylacetyl piperazine], for which the values for the inhibition in vivo at 300 mg/kg in assay [1] and in assay [2] were 65.3% and 66.8%, respectively. For the same molecule, in assay [3], the inhibition in vivo at 200 mg/kg was 65.6%.

Turning to `CCCN1CCN(C(=O)CC/C=C(\C)CC/C=C(\C)CC/C=C(\C)CCC=C(C)C)CC1` [Compound (4), N-n-propyl-N'-geranylgeranylacetyl piperazine], the inhibition in vivo at 300 mg/kg in assay [1] worked out at 69%; in assay [2] it was 64.7%. Further, the inhibition in vivo at 200 mg/kg in assay [3] stood at 56.5%.

Take `CC(C)=CCC/C(C)=C/CC/C(C)=C/CC/C(C)=C/CCC(=O)N1CCN(Cc2ccccc2)CC1` [Compound (12), N-benzyl-N'-geranylgeranylacetyl piperazine]: the inhibition in vivo at 300 mg/kg in assay [1] came to 61.1%; in assay [2] it was 64.9%. Moreover, in assay [3], the inhibition in vivo at 200 mg/kg amounted to 62.1%.

For the molecule `C=CCN1CCN(C(=O)CC/C=C(\C)CC/C=C(\C)CC/C=C(\C)CCC=C(C)C)CC1` [Compound (8), N-allyl-N'-geranylgeranylacetyl piperazine], the inhibition in vivo at 300 mg/kg came out at 68.5% in assay [1] and 70.5% in assay [2]. The inhibition in vivo at 200 mg/kg in assay [3] came out at 72.5%.

Take `CC1(C)[C@@H](OC(=O)CCC(=O)O)CC[C@]2(C)[C@H]3C(=O)C=C4[C@@H]5C[C@@](C)(C(=O)O)CC[C@]5(C)CC[C@@]4(C)[C@]3(C)CC[C@@H]12` [Carbenoxolone sodium, glycyrrhetinic acid hydrogen succinate, disodium salt, reference compound]: the inhibition in vivo at 300 mg/kg was 8.6% in assay [1], 60.5% in assay [2] and 63.6% in assay [3].

On to `CC(C)=CCC/C(C)=C/CC/C(C)=C/CC/C(C)=C/CCC(=O)N1CCN(CCCCCl)CC1` [Compound (10), N-4-chlorobutyl-N'-geranylgeranylacetyl piperazine], for which the inhibition in vivo at 300 mg/kg is 67.3% in assay [1] and 65.3% in assay [2]. In assay [3], the inhibition in vivo at 200 mg/kg is 70.2%.

Consider `CC(C)=CCCC(C)=CCCC(C)=CCCC(C)=CCCC(=O)N1CCNC(C)C1` (stereo not drawn) [Compound (13), methyl-N-geranylgeranylacetyl piperazine], for which the inhibition in vivo at 300 mg/kg worked out at 82.8% in assay [1] and 77.1% in assay [2]. In addition, the inhibition in vivo at 200 mg/kg in assay [3] was 79.2%.

As for `CC(C)=CCC/C(C)=C/CC/C(C)=C/CC/C(C)=C/CCC(=O)N1CCN(C)CC1` [Compound (2), N-methyl-N'-geranylgeranylacetyl piperazine], the inhibition in vivo at 300 mg/kg in assay [1] amounted to 76%; in assay [2], 74.5%. In assay [3], the inhibition in vivo at 200 mg/kg was 75.3%.

As to `CC(C)=CCC/C(C)=C/CC/C(C)=C/CC/C(C)=C/CCC(=O)N1CCN(C(C)C)CC1` [Compound (5), N-isopropyl-N'-geranylgeranylacetyl piperazine], the inhibition in vivo at 300 mg/kg in assay [1] was found to be 64%; in assay [2], 66.5%. Besides, the inhibition in vivo at 200 mg/kg in assay [3] was determined as 60%.

With `CC(C)=CCCC(C)=CCCC(C)=CCCC(=O)N1CCN(C)CC1` [Comparative compound of formula (A)-1, reference compound], the figures for the inhibition in vivo at 300 mg/kg in assay [1], in assay [2] and in assay [3] were 45.6%, 53.3% and 51.2%, respectively.

`NC[C@H]1CC[C@H](C(=O)Oc2ccc(CCC(=O)O)cc2)CC1` [Cetraxate hydrochloride, 4-(2-carboxyethyl)-phenyl-trans-4-aminomethylcyclohexanecarboxylate hydrochloride, reference compound]: the figures for the inhibition in vivo at 300 mg/kg in assay [1], in assay [2] and in assay [3] were 31.6%, 27.8% and 25.3%, respectively.

Turning to `CCCCCN1CCN(C(=O)CC/C=C(\C)CC/C=C(\C)CC/C=C(\C)CCC=C(C)C)CC1` [Compound (7), N-n-amyl-N'-geranylgeranylacetyl piperazine], the inhibition in vivo at 300 mg/kg in assay [1] is 64.6%; in assay [2], 67.3%. In addition, the inhibition in vivo at 200 mg/kg in assay [3] worked out at 65.3%.

As to `CCC1CN(C(=O)CCC=C(C)CCC=C(C)CCC=C(C)CCC=C(C)C)CCN1` (stereo not drawn) [Compound (14)], the figures for the inhibition in vivo at 300 mg/kg in assay [1] and in assay [2] were 70.2% and 71.5%, respectively. In assay [3], the inhibition in vivo at 200 mg/kg was 73.5%.

For the molecule `CCCCN1CCN(C(=O)CC/C=C(\C)CC/C=C(\C)CC/C=C(\C)CCC=C(C)C)CC1` [Compound (6), N-butyl-N'-geranylgeranylacetyl piperazine], the inhibition in vivo at 300 mg/kg worked out at 60.6% in assay [1] and 66.5% in assay [2]. Besides, the inhibition in vivo at 200 mg/kg in assay [3] was 55.3%.

As to `CC(C)=CCC/C(C)=C/CC/C(C)=C/CC/C(C)=C/CCC(=O)N1CCNCC1` [Compound (1), N-geranylgeranylacetyl piperazine], the inhibition in vivo at 300 mg/kg turned out to be 73.8% in assay [1] and 68.2% in assay [2]. The inhibition in vivo at 200 mg/kg in assay [3] stood at 66%.

Take `CC(C)=CCC/C(C)=C/CC/C(C)=C/CC/C(C)=C/CCC(=O)N1CCN(CC=C(C)C)CC1` [Compound (9), N-prenyl-N'-geranylgeranylacetyl piperazine]: the inhibition in vivo at 300 mg/kg in assay [1] came out at 59%; in assay [2] it was 64%. In assay [3], the inhibition in vivo at 200 mg/kg stood at 57.2%.
